US12227513B2, “Salt and crystalline form of furopyrimidine compound and pharmaceutical use thereof” (TIUMBIO CO., LTD., priority 2018, dated 2025)
Counter-ions that a name gives are not always drawn.

Tests used:
Format in all cases: physicochemical
[1] = Chemical purity after standing at 80° C. (HPLC; lactam-based related substances and main compound); settings: for Increase in related substances: After 20 hours at 80° C., peak area of lactam-based related substances relative to main compound (HPLC); for Residual amount of main compound: After 21 days at 80° C., HPLC
Method: (§1) Each of the salts (dibesylate salt, dihydrochloride salt, sodium salt, potassium salt) prepared in the above examples was left to stand at 80° C. for 20 hours, and then an amount of change in related substances was measured. In addition, each of the salts was left to stand at 80° C. for 21 days, and then a residual amount of the main compound (compound of Formula 1) was measured. For measurement of the related substances and the main compound, samples were taken before and after exposure to 80° C., dissolved in a diluted solution at a concentration of 1 mg/mL, and then subjected to high-performance liquid chromatography (HPLC). From the resulting data, an increase in related substances was calculated by measuring a peak area of lactam-based related substances relative to a peak area of the main compound. In addition, for comparison, the same test was also carried out for the free base of the compound of Formula 1.

[2] = Hygroscopicity (weight increase after 1 week at 25° C. and 60% or 90% relative humidity); settings: weight increase relative to the initial weight
Method: Each of the salts (dibesylate salt, dihydrochloride salt, dioxalate salt, sodium salt, potassium salt) prepared in the above examples was left to stand at 25° C. and 60% or 90% relative humidity for 1 week, and a hygroscopicity thereof was measured. Here, the hygroscopicity was measured as a percentage of weight increase, which was measured after the hygroscopicity test, relative to the initial weight.

[3] = Physical state of the product as obtained (foam, moistening); settings: observation in words
Description: First, the compound of Formula 1 was not solidified, which posed great difficulty in controlling a residual solvent.

[4] = Water solubility (distilled water at 25° C., HPLC); settings: supersaturated solution
Method: The water solubility was obtained as follows. Each of the free base and the dibesylate salt was dissolved in distilled water at 25° C. to make it supersaturated. Then, the solution was taken and diluted 20-fold with a diluent for dissolution. Then, the resultant was subjected to high-performance liquid chromatography (HPLC). In the resulting data, the dissolved amount was calculated from a peak area of the main compound.

[5] = Evaluation of stability of crystal form (PXRD after drying in vacuo at 50° C.); settings: after being dried in vacuo at 50° C.
Method: The solid product (crystalline form A) obtained in Example 1 was subjected to powder X-ray diffraction (PXRD). The results are shown in FIG. 1 and Table 8 below. • Instrument: Maker Bruker AXS, D8 FOCUS • Conditions: 40 kV, 30 mA, 2θ/θ scan range of 3° to 50°
The solid product (crystalline form A) obtained in Example 1 was dried in vacuo at 50° C., and then subjected to powder X-ray diffraction as described above. The results are illustrated in FIG. 4.
On the other hand, using 1,4-dioxane as a solvent, a solid product (crystalline form B) was obtained in a similar manner as in Example 1, and subjected to powder X-ray diffraction as described above.

[6] = Stability of drug product (oral capsule, 50° C. and 80% humidity for 3 weeks, HPLC); settings: 50° C. and 80% relative humidity for 3 weeks
Method: Using each of the salts (dibesylate salt, dihydrochloride salt, sodium salt, potassium salt) prepared in the above examples, a drug product was prepared in the form of an oral capsule with the excipient composition as shown in Table 6 below. The drug product was left to stand at 50° C. and 80% humidity for 3 weeks, and then an amount of change in related substances was measured. For measurement of related substances, the contents were separated from the capsule, and then all of them were placed in a diluted solution so that the active ingredient was brought to a concentration of 1 mg/mL. Shaking was performed for 5 minutes. The supernatant was taken and filtered. The filtrate was taken and subjected to high-performance liquid chromatography (HPLC).
From the resulting data, percentages of a peak area of the main compound (active ingredient) and a peak area of the lactam-based related substances were measured. In addition, for comparison, the same test was also carried out for the free base of the compound of Formula 1.

[7] = Chemical purity after storage for 3 months at 40° C. and 75% relative humidity (HPLC)
Method: as §1
In addition, in a similar manner, the dibesylate salt prepared in the above example was stored for 3 months (at 40° C. and 75% relative humidity), and amounts of change in lactam-based related substances and main compound were measured.

[8] = After 3 months at 40° C. and 75% relative humidity

| SMILES | Increase in related substances [1] [%] | Residual amount of main compound [1] [%] | Hygroscopicity ([2]; 60% RH) [wt %] | Hygroscopicity ([2]; 90% RH) [wt %] | further results |
| --- | --- | --- | --- | --- | --- |
| O=C(O)CCCN[C@@H](Cn1c(=O)c2c(n(Cc3c(F)cccc3C(F)(F)F)c1=O)COC21CCN(Cc2ccc(C(F)(F)F)o2)CC1)c1ccccc1 [Sodium salt] | 0.6 | 77.0 | 8.7 | 35 |  |
| O=C(O)CCCN[C@@H](Cn1c(=O)c2c(n(Cc3c(F)cccc3C(F)(F)F)c1=O)COC21CCN(Cc2ccc(C(F)(F)F)o2)CC1)c1ccccc1 [Potassium salt] | 0.4 | 72.6 | 9.2 | 38 |  |
| O=C(O)CCCN[C@@H](Cn1c(=O)c2c(n(Cc3c(F)cccc3C(F)(F)F)c1=O)COC21CCN(Cc2ccc(C(F)(F)F)o2)CC1)c1ccccc1 [Dioxalate salt] |  |  | 3.5 | 19 |  |
| O=C(O)CCCN[C@@H](Cn1c(=O)c2c(n(Cc3c(F)cccc3C(F)(F)F)c1=O)COC21CCN(Cc2ccc(C(F)(F)F)o2)CC1)c1ccccc1 [Free base, (R)-4-((2-(1-(2-fluoro-6-(trifluoromethyl)benzyl)-2,4-dioxo-1′-((5-(trifluoromethyl)furan-2-yl)methyl)-1H-spiro[furo[3,4-d]pyrimidine-5,4′-piperidine]-3 (2H,4H,7H)-yl)-1-phenylethyl)amino)butanoic acid] | 79.0 | 1.4 |  |  | Increase in related substances ([1]; listed as free base): about 79%; Moistening of the product obtained in the form of a foam [3]: easily moistened and turned into a sticky oil form; Water solubility (25° C.) [4]: 0.19 mg/mL; Water solubility (25° C.) ([4]; listed as free base): low water solubility |
| O=C(O)CCCN[C@@H](Cn1c(=O)c2c(n(Cc3c(F)cccc3C(F)(F)F)c1=O)COC21CCN(Cc2ccc(C(F)(F)F)o2)CC1)c1ccccc1 [Dibesylate salt] | 0.0 | 99.6 | 0.06 | 0.9 | Stability of crystal structure (PXRD) ([5]; listed as crystalline form A): maintained the same crystal structure as its initial one; Increase in related substances ([1]; listed as dibesylate salt): did not generate any related substances; Stability of drug product (in words) [6]: very good stability; Water solubility (25° C.) [4]: 25.77 mg/mL; Water solubility (25° C.) ([4]; listed as dibesylate salt): greatly improved water solubility; Hygroscopicity ([2]; 90% RH, listed as dibesylate salt): very low hygroscopicity; Chemical purity: Related substances [7, 8]: 0.03%; Chemical purity: main compound (Dibesylate salt) [7, 8]: 99.6%; Chemical purity: Related substances ([7]; Initial): 0.02%; Chemical purity: main compound (Dibesylate salt) ([7]; Initial): 99.7% |
| O=C(O)CCCN[C@@H](Cn1c(=O)c2c(n(Cc3c(F)cccc3C(F)(F)F)c1=O)COC21CCN(Cc2ccc(C(F)(F)F)o2)CC1)c1ccccc1 [diphosphate salt, reference compound] |  |  |  |  | Moistening of the product obtained in the form of a foam [3]: easily moistened and turned into a sticky oil form |
| O=C(O)CCCN[C@@H](Cn1c(=O)c2c(n(Cc3c(F)cccc3C(F)(F)F)c1=O)COC21CCN(Cc2ccc(C(F)(F)F)o2)CC1)c1ccccc1 [Dihydrochloride salt] | 0.9 | 69.4 | 2.1 | 16 |  |
| O=C(O)CCCN[C@@H](Cn1c(=O)c2c(n(Cc3c(F)cccc3C(F)(F)F)c1=O)COC21CCN(Cc2ccc(C(F)(F)F)o2)CC1)c1ccccc1 [crystalline form B] |  |  |  |  | Stability of crystal structure (PXRD) [5]: did not maintain some of its initial crystal structure |
